From publication PMC4193777 (PLoS ONE, 2014)

Key:
desensitized FPR2 = assay: PAF-induced cross-talk reactivation of desensitized FPR2 (superoxide); format: cell-based, human
Method: (§1) Human peripheral blood neutrophils were isolated from buffy coats from healthy blood donors using dextran sedimentation and Ficoll-Paque gradient centrifugation as described. The remaining erythrocytes were disrupted by hypotonic lysis, the neutrophils were washed twice, resuspended in KRG, and stored on melting ice until use. This isolation procedure permits cells to be purified with minimal granule mobilization.
(§2) The NADPH-oxidase activity was determined using isoluminol-enhanced chemiluminescence (CL), [27]. The CL activity was measured in a six-channel Biolumat LB 9505 (Berthold Co., Wildbad, Germany), using disposable 4-ml polypropylene tubes with a 900 µl reaction mixture containing 10^5 cells, isoluminol (2×10^−5 M) and HRP (2 U). The tubes were equilibrated in the Biolumat for 5 min at 37°C, after which the stimulus (100 µl) was added and the light emission was recorded continuously. Receptor desensitized cells were defined as naïve (non-desensitized) cells that had first been stimulated with a receptor specific agonist and returned to baseline after the resulting release of superoxide before a second stimulation. When reactivation experiments were performed with antagonists, the antagonists were added to the CL reaction mixture 1 min before the second stimulation. For studies with signaling inhibitors, cells were incubated with inhibitors at 37°C for 15 min before agonist addition. Control cells received no treatment but were incubated under the same conditions.
Figure 3 PAF- or ATP-stimulation induces reactivation of desensitized FPR2. […] A representative experiment is shown and the time point for addition of FPR2 agonists is indicated by the first arrow, the time point for PAF stimulation (100 nM final concentration) with the second arrow. The control PAF response induced in naïve (non-desensitized) neutrophils is shown for comparison (dotted line). Abscissa: Time of study (min); ordinate: Superoxide production (Mcpm). B. Naïve neutrophils were first desensitized with F2Pal10 (F2Pal10des., 500 nM final concentration) and subsequently stimulated with PAF (100 nM final concentration; time point for PAF addition is indicated by an arrow). The FPR2 specific inhibitor PBP10 (1 µM) was added 1 min prior to PAF stimulation (dashed line) and the release of superoxide anions was recorded continuously. The PAF responses induced in naïve cells (solid line), as well as in F2Pal10-desensitized cells receiving no PBP10 (dotted line), are shown for comparison. Abscissa: Time of study (min); ordinate: Superoxide production (Mcpm). C. Effect of calyculin A on receptor cross-talk induced FPR2 reactivation. Cells desensitized with F2Pal10 (F2Pal10des.) were incubated with the phosphatase inhibitor calyculin A (60 nM; solid line) or buffer as control (dashed line) for 10 min at 37°C prior to PAF stimulation (100 nM). The release of superoxide anions was recorded continuously. Abscissa: Time of study (min); ordinate: Superoxide production (Mcpm). […] Abscissa: Time of study (min); ordinate: Superoxide production (Mcpm). […] The results are given as peak values of superoxide production following addition of ATPγS (mean+SEM; n = 3).
Figure 4 More pronounced reactivation was induced by PAF in neutrophils desensitized by the pepducin F2Pal10. […] The results are given as peak values of superoxide production from three separate experiments for the first stimulation with FPR2 agonists (mean+SEM, n = 3). […]

FPR2 = biological target: T1, FPR2 (Homo sapiens, UniProt P25090); assay: Neutrophil NADPH-oxidase activity (superoxide release), direct activation of naive cells; format: cell-based
T1 construct: Human peripheral blood neutrophils were isolated from buffy coats from healthy blood donors; endogenous in cells; host or cells: primary human peripheral blood neutrophils from buffy coats of healthy donors
T1 sequence (P25090 1-351): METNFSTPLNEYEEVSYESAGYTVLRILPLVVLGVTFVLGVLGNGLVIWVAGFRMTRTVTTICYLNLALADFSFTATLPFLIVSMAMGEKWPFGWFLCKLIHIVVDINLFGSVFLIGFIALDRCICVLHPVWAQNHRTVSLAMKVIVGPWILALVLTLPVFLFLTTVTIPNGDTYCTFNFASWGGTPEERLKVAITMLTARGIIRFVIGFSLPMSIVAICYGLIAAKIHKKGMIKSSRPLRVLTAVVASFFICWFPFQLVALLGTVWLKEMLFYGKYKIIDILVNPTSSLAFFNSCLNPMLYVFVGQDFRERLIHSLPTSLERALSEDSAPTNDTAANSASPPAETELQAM
Method: as §1, §2
Data analysis was performed using GraphPad Prism 6.0 (Graphpad Software, San Diego, CA, USA).
Representative experiments out of more than five are shown and an arrow indicates the time point for agonist addition. Abscissa: Time of study (min); ordinate: Superoxide production (Mcpm).

Compound: CSCC[C@H](NC(=O)[C@@H](NC(=O)[C@H](CCSC)NC(=O)[C@H](Cc1ccc(O)cc1)NC(=O)[C@H](CCCCN)NC(=O)[C@@H](N)Cc1c[nH]c2ccccc12)C(C)C)C(N)=O [WKYMVM]
- type of agonism, cross-talk reactivation (desensitized FPR2; PAF- and ATP-induced cross-talk reactivation of desensitized FPR2): partial agonist
- priming of PAF response in desensitized neutrophils (desensitized FPR2; desensitizing agent F2Pal10 500 nM or WKYMVM 40 nM, PAF 100 nM): primed in their response to PAF
- concentration inducing comparable sub-maximum response, pair 1 (FPR2; first stimulation of naive neutrophils, 10 nM WKYMVM≈100 nM F2Pal10): 10 nM
- concentration inducing comparable sub-maximum response, pair 2 (FPR2; first stimulation of naive neutrophils, 25 nM WKYMVM≈250 nM F2Pal10): 25 nM
- concentration inducing comparable sub-maximum response, pair 3 (FPR2; first stimulation of naive neutrophils, 40 nM WKYMVM≈500 nM F2Pal10): 40 nM
- time to peak of radical production (FPR2; upon stimulation of neutrophils): around one
